Measured values as given in PubChem BioAssay AID463199 (Broad Institute, 2010).
Activity calls are given as the source filed them.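 How the source made its calls: active means AC50, the dose giving half-maximal effect, exceeds a fixed cutoff for a compound that rescues yeast growth under heat; inactive means the rest, inconclusive results apart.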

Tested on: S. cerevisiae Burl-1 ts mutant growth, BacTiter-Glo, 38.5C 24 h
Assay: restored growth of temperature-sensitive Burl-1 yeast – whole organism, S. cerevisiae, Burl-1 ts mutant, luminescence, counter-screen for SUMOylation pathway inhibitor project, dose response (AID 463199)

Structure (SMILES) | AC50
Cc1ccc(/C(N)=N/OC(=O)/C=C/c2ccccc2)cc1 | > 42 µM (inactive)
C/C(N)=C(/C#N)C(=O)CSc1nnc(-c2ccccc2)n1C | > 42 µM (inactive)
CCOC(=O)c1[nH]c2ccc(Br)cc2c1NC(=O)CCN1CCOCC1 | > 42 µM (inactive)
Cc1ccn2cc(-c3cnoc3C)nc2c1 | > 42 µM (inactive)
Cc1ccc(CSCCNC(=O)c2ccc(NS(C)(=O)=O)cc2)cc1 | > 42 µM (inactive)
COc1ccc(OC)c2c(N)c(C#N)c(C(F)(F)C(F)(F)F)nc12 | > 42 µM (inactive)
CCCC(=O)N(CCN1CCOCC1)c1nc2ccc(OCC)cc2s1 | > 42 µM (inactive)
COc1ccc(-c2cc(=O)c3cc(O)ccc3o2)cc1 | > 42 µM (inactive)
O=C(c1cc(N2C(=O)C3C4CCC(C4)C3C2=O)ccc1Cl)N1CCCCCC1 (configuration not stated) | > 42 µM (inactive)
NC1=NC(=Nc2ccc(S(N)(=O)=O)cc2)c2ccccc21 | > 21 µM (inactive)
COc1ccc(NC2CCCN(C(=O)c3csc(C)n3)C2)cc1 (configuration not stated) | > 42 µM (inactive)
CCOC(=O)c1cnc2ccc(Cl)cc2c1N1CCN(C)CC1 | > 42 µM (inactive)
O=C1NC(=O)N(Cc2ccccc2)C1=O | > 42 µM (inactive)
O=C(CCc1ccccc1)NNC(=S)Nc1ccc(F)cc1 | > 42 µM (inactive)
COc1cc2cc(C)c3nnc(SCC(=O)Nc4cc(C)on4)n3c2cc1OC | > 42 µM (inactive)
COc1ccc(C2CC(c3cccs3)=NN2C(=O)c2ccccc2)cc1OC (configuration not stated) | > 42 µM (inactive)
COc1ccc(NC(=O)Nc2ccccc2C(=O)N2CCCC2)cc1 | 1.83 µM
O=S(=O)(Cc1cc(-c2ccccc2)no1)c1ccccc1 | > 42 µM (inactive)
CC(C)(C)C(=O)Nc1ccc(C(=O)NCc2cccnc2)cc1 | > 42 µM (inactive)
COc1cc(NC(=O)c2cc(Cl)ccc2Cl)ccc1-c1cc2ccccc2oc1=O | > 42 µM (inactive)
Cc1ccccc1OCc1nc(-c2ccccc2)no1 | > 42 µM (inactive)
CCS(=O)(=O)N1CCC(C(=O)N2CCc3ccccc3C2)CC1 | > 42 µM (inactive)
CCCCc1n[nH]c(=S)n1Cc1ccc(C)cc1 | > 42 µM (inactive)
CCN(CC)c1ccc(C=C2C(=O)OC(c3ccccc3)OC2=O)cc1 (configuration not stated) | > 42 µM (inactive)
COc1ccc(C2C(C(C)=O)=C(O)C(=O)N2CCO)c(OC)c1 (configuration not stated) | > 42 µM (inactive)
Cn1c(CN2CCOCC2)nnc1SCC(=O)Nc1cc(Cl)ccc1Cl | > 42 µM (inactive)

Structure (SMILES) | AC50
COc1ccc2c(c1)OC[C@H]1[C@H]2N2C(=O)c3cc(F)ccc3NC(=O)[C@@]2(C)[C@H]1c1ccccc1 | > 42 µM (inactive)
CCOC(=O)c1cc([N+](=O)[O-])c([N+](=O)[O-])cc1NC(C)=O | > 42 µM (inactive)
O=C(CSc1nnc(COc2ccccc2Cl)o1)NC(=O)NC1CCCC1 | > 42 µM (inactive)
COc1ccc(C(=O)c2c(C)c3cc(C)ccc3n2CC(O)CN2CCOCC2)cc1 (configuration not stated) | > 110 µM (inactive)
OC[C@@H](O)CCl | > 42 µM (inactive)
COc1ccc(CCN2CC(C(=O)N(C)CC(=O)Nc3cccc(F)c3)CC2=O)cc1OC (configuration not stated) | > 42 µM (inactive)
CCCC(O)(CCC)C(=O)NNc1ccc(C)cc1 | > 42 µM (inactive)
N/C(=N\OC(=O)CCC1CCCC1)c1ccc([N+](=O)[O-])cc1 | > 42 µM (inactive)
COC(=O)CN(C(=S)Nc1ccc(F)cc1)C1CC(=O)N(c2ccccc2)C1=O (configuration not stated) | > 42 µM (inactive)
Nc1cc(=O)[nH]c(=O)n1CCc1ccccc1 | > 42 µM (inactive)
OCC[C@@H]1C[C@H](O)[C@@H](O)[C@]2(CCc3ccccc3CO2)O1 | > 42 µM (inactive)
S=C(NCCc1ccccc1)Nc1ccccc1Cl | > 42 µM (inactive)
S=c1[nH]ccn1-c1cccc(Cl)c1 | > 42 µM (inactive)
CC1(C)CC(=O)C2=C(C1)Oc1ncn(CCO)c(=N)c1C2c1ccccc1 (configuration not stated) | > 42 µM (inactive)
Cc1ccc(Nc2cc(C)nc3c(C)ccc([N+](=O)[O-])c23)cc1 | > 21 µM (inactive)
COC(=O)CNC(=O)CSc1ccccn1 | > 42 µM (inactive)
COc1ccc(C2=Nn3c(nnc3-c3ccco3)SC2)cc1 | > 42 µM (inactive)
COc1cc(NC(=O)CCN2CCN(Cc3ccccc3)CC2)cc(OC)c1 | > 42 µM (inactive)
N#CC1=C(N)Nc2ncnn2C1c1ccc([N+](=O)[O-])cc1 (configuration not stated) | > 42 µM (inactive)
CS(=O)(=O)C1=NSC2=NC(=O)/C(=C\c3ccc(OS(=O)(=O)c4ccccc4)cc3)C(=N)N21 | > 42 µM (inactive)
Cc1ccc(C(=O)NCCCN2CCOCC2)cc1 | > 42 µM (inactive)
O=[N+]([O-])c1cccc(-c2nc3ccc([N+](=O)[O-])cc3[nH]2)c1 | > 42 µM (inactive)
O=C(CCSc1nnnn1-c1ccccc1)N1CCOCC1 | > 42 µM (inactive)
CSc1ccc(CN2CCN(S(=O)(=O)Cc3ccccc3)CC2)cc1 | > 42 µM (inactive)
CC1(C)CCc2cc(CN3CCN(c4ccccn4)CC3)ccc2O1 | > 42 µM (inactive)
CCOc1ccc(C(=O)c2cccs2)cc1 | > 42 µM (inactive)

Structure (SMILES) | AC50
COc1ccc(C(=O)COc2ccc3ccc(=O)oc3c2)cc1 | > 42 µM (inactive)
CN(C)c1ccc(/C=C/c2cccc[n+]2[O-])cc1 | > 42 µM (inactive)
CCCOC(=O)c1c(NC(=O)/C=C/c2cnn(C)c2C)sc(C(=O)OC)c1C | > 42 µM (inactive)
CCCCNS(=O)(=O)c1ccc2c(c1)oc(=O)n2CC(=O)OCC | > 42 µM (inactive)
O=C(Cn1cnc2ccccc2c1=O)c1ccc(OC(F)F)cc1 | > 42 µM (inactive)
CCCc1ccccc1OCCNC(C)=O | > 42 µM (inactive)
CCc1noc(C)c1C(=O)Nc1nc(-c2ccc(F)cc2)c(C)s1 | > 42 µM (inactive)
Cc1nc2ccc(NC(=O)c3ccco3)cc2s1 | > 42 µM (inactive)
Cc1cccc(CS(=O)(=O)Cc2ccc(C(=O)NCC3CCCO3)o2)c1 (configuration not stated) | > 42 µM (inactive)
Cc1ccc2c(c1)N(CC(=O)NCC1CCCO1)C(=O)C(C)O2 (configuration not stated) | > 42 µM (inactive)
O=C1CN(C(=O)COC(=O)CCNS(=O)(=O)c2ccc(Cl)cc2)c2ccccc2N1 | > 42 µM (inactive)
c1ccc(-c2csc(N3CCN(c4ccccn4)CC3)n2)cc1 | > 42 µM (inactive)
Cn1c(=O)c2c(ncn2CC(=O)OCC(=O)Nc2ccc(Cl)cc2)n(C)c1=O | > 42 µM (inactive)
CCc1c(C)nc(N2CCN(Cc3ccccc3)CC2)[nH]c1=O | > 42 µM (inactive)
N#C/C(=N\Nc1cccc(F)c1)C(=N)N1CCCCCC1 | > 42 µM (inactive)
COC(=O)c1sccc1NC(=O)CC1C(=O)NCCN1C(=O)Nc1ccc(F)cc1F (configuration not stated) | > 42 µM (inactive)
NC(=O)NC(=O)COC(=O)/C=C/c1cccs1 | > 42 µM (inactive)
COc1ccc(C2SCC(=O)Nc3c2c(=O)[nH]n3C2CCCCC2)cc1 (configuration not stated) | > 42 µM (inactive)
CC(C)(C)C(=O)NC1(C(F)(F)F)NC(=O)N(c2ccccc2F)C1=O (configuration not stated) | > 42 µM (inactive)
COc1cc(/C=C2\NC(=S)N(C)C2=O)ccc1OCc1cccc(F)c1 | > 42 µM (inactive)
CCCOc1ccc(C(=O)NCc2ccco2)cc1 | > 42 µM (inactive)
CCOc1ccccc1N(C(=O)c1snc(C(N)=O)c1N)C(CC)C(=O)NC1CCCC1 (configuration not stated) | > 42 µM (inactive)
Cc1ccc2nc(SCC(=O)Nc3cccc(S(N)(=O)=O)c3)[nH]c2c1 | > 42 µM (inactive)
O=C(Nc1ccccc1)N1CCN(CCc2ccccc2)CC1 | > 42 µM (inactive)
O=C(CCSc1ccccc1)NNC(=O)c1ccccc1F | > 42 µM (inactive)
CCS(=O)(=O)N1CCC(C(=O)NCCCN2CCN(c3ccccc3F)CC2)CC1 | > 42 µM (inactive)

Structure (SMILES) | AC50
Cc1ccc(N2CN(CCc3ccccc3)CNC2=S)cc1 | > 42 µM (inactive)
CC(=O)Nc1sc2c(c1C(c1ccc(F)cc1)N1CCOCC1)CCCC2 (configuration not stated) | > 42 µM (inactive)
Oc1ccccc1-c1cc(C(F)(F)C(F)F)[nH]n1 | > 42 µM (inactive)
CCC(Cc1ccccc1)NC(=O)C1CCN(c2nn3c(=O)cc(C)nc3s2)CC1 (configuration not stated) | > 42 µM (inactive)
c1ccc2nc3c(nc2c1)OCC1CCCCN31 (configuration not stated) | > 42 µM (inactive)
CN(C)CC/C=C1/c2cc(F)ccc2Sc2ccc(Cl)cc21 | > 42 µM (inactive)
Clc1cnc(Oc2ccc(Oc3ncc(Cl)cc3Cl)cc2)c(Cl)c1 | > 42 µM (inactive)
CSc1cc(C)c(OCC(=O)Nc2c(C)nn(C)c2C)c(C)c1 | > 42 µM (inactive)
CCC1CCCCN1C(=O)CSc1nc2c([nH]c3ccccc32)c(=O)n1C (configuration not stated) | > 42 µM (inactive)
Cc1ccc(C)c(N2CCN(C(c3ccncc3)c3nnnn3Cc3ccccc3)CC2)c1 (configuration not stated) | 32.8 µM
c1ccc(-c2nc(N3CCOCC3)c3ccccc3n2)nc1 | > 42 µM (inactive)
NS(=O)(=O)c1cccc(NC(=O)c2cccnc2Oc2ccccc2)c1 | > 42 µM (inactive)
Cc1c(C2(O)CCCCC2)[nH]c2ccc(C#N)cc12 | > 42 µM (inactive)
CN(C)/C=N/NC(=O)c1ccccc1 | > 42 µM (inactive)
O=C(N/N=C/c1cccc([N+](=O)[O-])c1)C1COc2ccccc2O1 (configuration not stated) | > 42 µM (inactive)
CN1CCN(C(=O)CCN2C(=O)/C(=C/c3ccccc3Cl)SC2=S)CC1 | > 42 µM (inactive)
Cc1cc(=O)c(C(=O)O)cn1Nc1ccc(Cl)cc1 | > 42 µM (inactive)
O=C(Nc1cnn(Cc2ccc(Cl)cc2)c1)c1ccc([N+](=O)[O-])cc1 | > 42 µM (inactive)
COc1ccc(CN(CC(=O)NCC2CCCO2)C(=O)CCC(=O)Nc2cc(C)on2)cc1 (configuration not stated) | > 42 µM (inactive)
c1ccc(C(c2ccccc2)N2CCN(C(c3ccccn3)c3nnnn3C3CCCC3)CC2)cc1 (configuration not stated) | > 42 µM (inactive)
CCC(C)(C)n1nnnc1C(c1ccc(OC)c(OC)c1)N1CCN(c2cccc(OC)c2)CC1 (configuration not stated) | > 42 µM (inactive)
O=C(CCC(=O)OCC(=O)c1ccc(Br)cc1)Nc1cccc2cccnc12 | > 42 µM (inactive)
Clc1ccccc1C(c1ccccc1)(c1ccccc1)n1ccnc1 | > 42 µM (inactive)
O=S(=O)(Nn1c(O)c(C=C2N=c3ccccc3=N2)sc1=S)c1ccccc1 | > 42 µM (inactive)
